Results: patent publication US20220323406A1, “METHODS AND COMPOSITIONS FOR DIFFERENTIATING STEM CELLS” (Massachusetts Institute of Technology, priority 2019, published 2022)
Counter-ions that a name gives are not always drawn.

Key:
[1] = test system: ENR+CD organoids (ISC to Paneth cell differentiation); experiment: Primary screen: CCh-stimulated lysozyme secretion LYZ.S, 2.5-D 384-well ENR+CD organoid differentiation; format: cell-based, mouse; conditions: primary screen, FC relative to plate median
Description: (§1) High-throughput screening.

[2] = test system: ENR+CD organoids; experiment: Primary screen: ATP (CellTiter-Glo 3D, CTG) cell number/viability, 2.5-D 384-well ENR+CD organoids; conditions: primary screen; for Dose.FC.CTG: FC relative to plate median; for Z.CTG: standard z score;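 as to all read-outs here: compounds given at plating and again on day 3 over a 6-day differentiation from ENR+CV stem-cell-enriched precursors, ATP measured on day 6, plate median as control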
[3] = test system: ENR+CD organoids (ISC to Paneth cell differentiation); experiment: Primary screen: basal (non-stimulated) lysozyme secretion LYZ.NS, 2.5-D 384-well ENR+CD organoid differentiation; format: cell-based, mouse; conditions: primary screen; for Dose.FC.LYZ.NS: FC relative to plate median; for Z.LYZ.NS: standard z score
Description: as §1

Compound | Dose.FC.LYZ.S ([1]; dose 0.08 uM) | Dose.FC.LYZ.S ([1]; dose 0.40 uM) | Dose.FC.LYZ.S ([1]; dose 2.00 uM) | Dose.FC.LYZ.S ([1]; dose 10.00 uM) | Dose.FC.CTG ([2]; dose 0.08 uM) | Dose.FC.CTG ([2]; dose 0.40 uM) | Dose.FC.CTG ([2]; dose 2.00 uM) | Dose.FC.CTG ([2]; dose 10.00 uM) | Dose.FC.LYZ.NS ([3]; dose 0.08 uM) | Z.LYZ.NS ([3]; dose 0.08 uM) | Dose.FC.LYZ.NS ([3]; dose 0.40 uM) | Z.LYZ.NS ([3]; dose 0.40 uM) | Dose.FC.LYZ.NS ([3]; dose 2.00 uM) | Z.LYZ.NS ([3]; dose 2.00 uM) | Dose.FC.LYZ.NS ([3]; dose 10.00 uM) | Z.LYZ.NS ([3]; dose 10.00 uM) | Z.CTG ([2]; dose 0.08 uM) | Z.CTG ([2]; dose 0.40 uM) | Z.CTG ([2]; dose 2.00 uM) | Z.CTG ([2]; dose 10.00 uM)
O=C(NC[C@H]1CN(c2ccc(N3CCOCC3=O)cc2)C(=O)O1)c1ccc(Cl)s1 [Rivaroxaban] | 0.136 log2 fold change | −0.027 log2 fold change | 0.063 log2 fold change | −0.048 log2 fold change | 0.021 log2 fold change | 0.195 log2 fold change | 0.052 log2 fold change | 0.044 log2 fold change | 0.108 log2 fold change | 0.941 | −0.029 log2 fold change | −0.248 | 0.153 log2 fold change | 1.336 | −0.045 log2 fold change | −0.390 | – | – | – | –
CN(C)CCc1c[nH]c2ccc(Cn3cncn3)cc12 [Rizatriptan Benzoate] | 0.179 log2 fold change | 0.019 log2 fold change | −0.009 log2 fold change | 0.105 log2 fold change | 0.214 log2 fold change | 0.109 log2 fold change | 0.126 log2 fold change | −0.054 log2 fold change | 0.070 log2 fold change | 0.613 | 0.148 log2 fold change | 1.289 | 0.027 log2 fold change | 0.238 | 0.000 log2 fold change | −0.003 | – | – | – | –
COc1cc2c(cc1OC)[C@@H]1Cc3ccc(OC)c(OC)c3CN1CC2 [Rotundine] | 0.151 log2 fold change | 0.049 log2 fold change | 0.080 log2 fold change | 0.095 log2 fold change | 0.359 log2 fold change | 0.343 log2 fold change | 0.190 log2 fold change | 0.227 log2 fold change | 0.124 log2 fold change | 1.082 | 0.032 log2 fold change | 0.282 | 0.072 log2 fold change | 0.623 | 0.126 log2 fold change | 1.100 | – | – | – | –
CC(=O)OCC(=O)NCCCOc1cccc(CN2CCCCC2)c1 [Roxatidine Acetate HCl] | 0.035 log2 fold change | 0.099 log2 fold change | −0.053 log2 fold change | −0.104 log2 fold change | −0.040 log2 fold change | 0.021 log2 fold change | −0.103 log2 fold change | −0.236 log2 fold change | 0.149 log2 fold change | 1.295 | −0.029 log2 fold change | −0.256 | −0.001 log2 fold change | −0.009 | −0.061 log2 fold change | −0.534 | – | – | – | –
Cc1nn(-c2ccccc2)c(C)c1/C=N/N1CCN(Cc2ccccc2)CC1 [SANT-1] | 0.112 log2 fold change | 0.024 log2 fold change | 0.101 log2 fold change | −0.120 log2 fold change | 0.308 log2 fold change | 0.078 log2 fold change | 0.137 log2 fold change | −0.042 log2 fold change | 0.056 log2 fold change | 0.485 | 0.000 log2 fold change | 0.002 | 0.175 log2 fold change | 1.528 | −0.049 log2 fold change | −0.430 | 0.736 | 0.186 | 0.327 | −0.100
CCn1c(N)c(C(=O)NC)c(=O)c2ccc(C#C[C@@](C)(O)COC)nc21 [SAR131675] | 0.148 log2 fold change | 0.096 log2 fold change | 0.026 log2 fold change | 0.000 log2 fold change | 0.175 log2 fold change | −0.084 log2 fold change | 0.071 log2 fold change | 0.062 log2 fold change | 0.055 log2 fold change | 0.483 | 0.089 log2 fold change | 0.774 | 0.021 log2 fold change | 0.181 | −0.088 log2 fold change | −0.766 | 0.419 | −0.201 | 0.169 | 0.149
C[S+]([O-])c1ccc(-c2nc(-c3ccc(F)cc3)c(-c3ccncc3)[nH]2)cc1 (stereo not drawn) [SB203580] | 0.148 log2 fold change | 0.098 log2 fold change | 0.077 log2 fold change | 0.069 log2 fold change | 0.201 log2 fold change | 0.149 log2 fold change | 0.237 log2 fold change | 0.182 log2 fold change | 0.092 log2 fold change | 0.805 | 0.127 log2 fold change | 1.109 | 0.052 log2 fold change | 0.453 | 0.023 log2 fold change | 0.199 | 0.479 | 0.356 | 0.567 | 0.435
Cc1cc(NC(=O)Nc2ccc(N(C)C)cc2)c2cc(F)cc(F)c2n1 [SB408124] | 0.198 log2 fold change | 0.193 log2 fold change | 0.082 log2 fold change | −0.148 log2 fold change | 0.410 log2 fold change | 0.334 log2 fold change | 0.364 log2 fold change | 0.091 log2 fold change | 0.172 log2 fold change | 1.494 | 0.134 log2 fold change | 1.168 | 0.084 log2 fold change | 0.730 | −0.070 log2 fold change | −0.607 | 0.978 | 0.799 | 0.869 | 0.216
O=C1NC(=O)C(c2ccccc2[N+](=O)[O-])=C1Nc1ccc(O)c(Cl)c1 [SB415286] | 0.159 log2 fold change | −0.008 log2 fold change | −0.053 log2 fold change | −0.042 log2 fold change | 0.221 log2 fold change | −0.004 log2 fold change | −0.097 log2 fold change | 0.123 log2 fold change | 0.145 log2 fold change | 1.262 | 0.012 log2 fold change | 0.101 | 0.118 log2 fold change | 1.024 | −0.016 log2 fold change | −0.136 | 0.527 | −0.011 | −0.231 | 0.293
O=C(Nc1ccccc1Br)N[C@@H]1CCN(c2ccc(C(F)(F)F)cn2)C1 [SB705498] | 0.094 log2 fold change | 0.023 log2 fold change | −0.030 log2 fold change | −0.023 log2 fold change | 0.133 log2 fold change | −0.043 log2 fold change | −0.004 log2 fold change | −0.037 log2 fold change | 0.074 log2 fold change | 0.642 | −0.050 log2 fold change | −0.433 | −0.001 log2 fold change | −0.008 | −0.018 log2 fold change | −0.154 | 0.318 | −0.102 | −0.009 | −0.089
O=S(=O)(c1ccccc1)c1cnc2c(N3CCNCC3)cccc2c1 [SB742457] | −0.055 log2 fold change | −0.029 log2 fold change | −0.003 log2 fold change | −0.006 log2 fold change | −0.290 log2 fold change | −0.126 log2 fold change | −0.177 log2 fold change | −0.294 log2 fold change | 0.012 log2 fold change | 0.108 | −0.062 log2 fold change | −0.537 | 0.069 log2 fold change | 0.598 | 0.013 log2 fold change | 0.115 | −0.693 | −0.300 | −0.423 | −0.702
